Reference: publication PMC11758220, “Identification of a Privileged Scaffold for Inhibition of Sterol Transport Proteins through the Synthesis and Ring Distortion of Diverse, Pseudo-Natural Products” (ACS Central Science, 2025)

Key:
Type in all cases: binding
Conditions in all cases: single dose, Dose = 10 µM
Aster-A = biological target: T1, Aster-A (Homo sapiens, UniProt Q96CP6); assay: Fluorescence polarisation (FP) competition with NBD-cholesterol, Aster-A
T1 construct: Aster-A(359-547); GST (PreScission-cleavable) (N, cleaved yes); made in house; host or cells: E. coli OverExpress C41
T1 sequence (Q96CP6 359-547): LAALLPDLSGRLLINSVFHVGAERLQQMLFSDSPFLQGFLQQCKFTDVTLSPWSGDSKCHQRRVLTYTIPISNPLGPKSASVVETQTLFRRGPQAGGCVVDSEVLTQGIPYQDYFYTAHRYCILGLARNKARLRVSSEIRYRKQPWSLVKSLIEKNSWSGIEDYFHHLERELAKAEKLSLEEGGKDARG

Aster-B = biological target: T2, Aster-B (Homo sapiens, UniProt Q3KR37); assay: Fluorescence polarisation (FP) competition with NBD-cholesterol, Aster-B
T2 construct: -B(364-552); GST (PreScission-cleavable) (N, cleaved yes); made in house; host or cells: E. coli OverExpress C41
T2 sequence (Q3KR37 364-552): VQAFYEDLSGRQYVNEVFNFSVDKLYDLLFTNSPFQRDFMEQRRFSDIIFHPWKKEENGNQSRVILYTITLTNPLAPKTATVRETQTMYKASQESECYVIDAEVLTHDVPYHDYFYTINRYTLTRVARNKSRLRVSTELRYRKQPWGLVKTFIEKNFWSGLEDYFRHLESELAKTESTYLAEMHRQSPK

STARD4 = biological target: T3, STARD4 (Homo sapiens, UniProt Q96DR4, C75S); assay: Differential scanning fluorimetry (DSF), STARD4
T3 construct: STARD4(2-205; C75S); made in house; host or cells: E. coli BL21(DE3)
T3 sequence (Q96DR4 2-205 C75S): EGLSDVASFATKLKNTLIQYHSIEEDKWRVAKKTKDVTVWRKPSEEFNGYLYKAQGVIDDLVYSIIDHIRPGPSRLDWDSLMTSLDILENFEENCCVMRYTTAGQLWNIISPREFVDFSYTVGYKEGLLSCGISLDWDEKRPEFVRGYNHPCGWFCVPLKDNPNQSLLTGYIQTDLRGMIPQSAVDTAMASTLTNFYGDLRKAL

Q: Cc1ccc2c(c1)C(=O)CC[C@@H]1C[C@H](O)CC[C@]1(C)C(=O)N2 [Compound 11c] was tested. Which inhibition at 10 µM (Aster-A) did it give?
A: -4%

Q: And the inhibition at 10 µM (Aster-B)?
A: 6%

Q: And the ΔTm at 10 µM (STARD4)?
A: -0.0446 °C
